# Measured values from US6498145B1, “Use of purified SDG as a hypotensive (vasodilator) agent” (University of Saskatchewan Technologies Incorporated, priority 2000, dated 2002).
# Assays:
# Format in all cases: in vivo, rat
# [1] = tested on: anesthetized normotensive rats; assay: Blood pressure and heart rate of anesthetized normotensive rats, SDG intravenously; details: for maximum fall in mean B.P.: 15 minutes after administration
# Method: The effects of SDG in the doses of 10 mg, 15 mg, 20 mg and 30 mg/kg given intravenously were investigated on the blood pressure (B.P.) and heart rate of anesthetized normotensive rats. The number of rats used were 8, 3, 9, and 3 respectively for the doses of SDG (10 mg, 15 mg, 20 mg and 30 mg/kg body wt.). The maximum fall in mean B.P. were approximately 38%, 29%, 46% and 57% with 10 mg, 15 mg, 20 mg and 30 mg/kg dose of SDG respectively at 15 minutes after administration of SDG. After 15 minutes the blood pressure tended to recover but the recovery was not complete. The mean blood pressure at the end of three hours after SDG administration were approximately 25% lower than control values. The changes in the systolic and diastolic pressure were similar to the mean blood pressure with various doses of SDG. […] One would expect a very long duration of hypotensive effect when SDG is given orally.
# [2] = tested on: anesthetized normotensive rats; assay: Hypotensive effect of SDG after premedication with blockers/inhibitors in anesthetized normotensive rats
# Method: FIG. 5 is a graph showing changes in the mean arterial blood pressure (B.P.) with SDG (20 mg/kg, intravenously) in the absence or presence of methylene blue (MB) (0.5 mg/kg); methylene blue was given 15 minutes prior to administration of SDG and results are expressed as mean±S.E. *p<0.05, comparison of values at various times with respect to “0” time.
# FIG. 9 is a graph showing effects of SDG in the absence or presence of pyrilamine on the mean arterial blood pressure (B.P.) in anesthetized normotensive rats. Pyrilamine was given 15 minutes before administration of SDG. The results are expressed as mean±S.E. *p<0.05, comparison of values at various times with respect to “0” time.
# Heart rate was not affected by methylene blue (FIG. 8).
# [3] = tested on: angiotensin converting enzyme (ACE); assay: Angiotensin I-induced rise in blood pressure before and after SDG; details: SDG 10 mg/kg intravenously
# Method: Further experiments were conducted to determine if the SDG-induced fall in the blood pressure is mediated through inhibition of angiotensin converting enzyme (ACE). Angiotensin I is converted to angiotensin II which is vasoconstrictor and raises blood pressure. If SDG lowers blood pressure by inhibiting ACE, then SDG would reduce/prevent the angiotensin I-induced rise in the blood pressure. Experiments were conducted in six normotensive Sprague-Dawley rats. […] However, the effects of angiotensin on arterial pressure of untreated rats remained unaltered. SDG (10 mg/kg) produced a marked fall in the mean arterial pressure.
# [4] = tested on: angiotensin II receptor; assay: Angiotensin II response on arterial pressure before and after SDG; details: SDG 10 mg/kg intravenously
# Method: To determine if the SDG-induced fall in the blood pressure is mediated through the blockade of angiotensin II receptor, experiments were carried out in normotensive Sprague-Dawley rats. Effects of angiotensin II (0.2 μg/kg, I.V.) given before and after 15 minutes, 30 minutes and 60 minutes of SDG (10 mg/kg) administered intravenously were investigated on the arterial pressure of six anesthetized Sprague-Dawley rats. […] The response of angiotensin II on the mean arterial pressure in untreated rats remained unaltered.
# [5] = tested on: anesthetized spontaneous hypertensive rats (SHR); assay: Blood pressure of anesthetized spontaneous hypertensive rats, SDG intravenously
# Method: (§1) The effects of SDG on the arterial pressure of anesthetized spontaneous hypertensive rats (SHR) were investigated to determine (a) if it is effective in lowering blood pressure to the same extent as in normotensive Sprague-Dawley rats; (b) if it is effective when given by intraperitoneal route; (c) if the effect is dose-dependent.
# (i) Effects of SDG in the doses of 1 mg, 3 mg and 15 mg/kg given intravenously were investigated on the blood pressures of anesthetized spontaneous hypertensive rats (SHR). The maximum fall in the blood pressure occurred between 15 to 30 minutes of SDG administration after which the blood pressure tended to recover. However, the recovery was short lived. The percent decreases in blood pressures at 30 minutes after SDG were 19, 25 and 31 respectively with 1 mg, 3 mg and 15 mg/kg of SDG. At the end of 4 hours of SDG treatment, the percent decreases were 34, 43 and 36 respectively with 1 mg, 3 mg and 15 mg dose. The fall in the blood pressure initially (at 15 minutes) was maximum with high dose of SDG.
# [6] = tested on: anesthetized spontaneous hypertensive rats (SHR); assay: Blood pressure of anesthetized spontaneous hypertensive rats, SDG intraperitoneally; details: for maximum fall in the blood pressure: 30 minutes; for percent decrease in blood pressures: end of four hours
# Method: as §1
# (ii) Effects of SDG in the doses of 5 mg, 10 mg, 50 mg and 200 mg/kg given intraperitoneally were investigated on blood pressure of anesthetized SHR for four hours. The maximum fall in the blood pressure were approximately 7, 37, 50 and 48% respectively with 5 mg, 10 mg, 50 mg and 200 mg of SDG at 30 minutes. At the end of four hours of SDG administration the percent decreases in blood pressures were 31, 42, 39 and 37 respectively with these four doses of SDG.
# [7] = tested on: anesthetized spontaneous hypertensive rats; assay: Blood pressure of anesthetized spontaneous hypertensive rats, SDG orally; details: SHR, 100 mg/kg orally
# Method: (iii) Effects of SDG (100 mg/kg body wt.) given orally were investigated on the blood pressure of anesthetized spontaneous hypertensive rats for four hours. The blood pressures began falling at 15 minutes of SDG administration and maximum fall occurred after three hours. The decreases were of similar magnitude for systolic, diastolic and mean arterial pressures. The systolic, diastolic and mean arterial pressures respectively were 243 mmHg, 176 mmHg and 198 mmHg before administration of SDG. SDG reduced the blood pressure by approximately 25%.
# [8] = normotensive Sprague-Dawley rats
smiles,measurement,setting,value
"COc1cc(C[C@@H](CO[C@@H]2O[C@H](CO)[C@@H](O)[C@H](O)[C@H]2O)[C@H](CO[C@@H]2O[C@H](CO)[C@@H](O)[C@H](O)[C@H]2O)Cc2ccc(O)c(OC)c2)ccc1O [SDG, secoisolariciresinol diglucoside]",maximum fall in mean B.P.,"[1]; 10 mg/kg intravenously, normotensive rats",approximately 38%
same,maximum fall in mean B.P.,"[1]; 15 mg/kg intravenously, normotensive rats",~29%
same,maximum fall in mean B.P.,"[1]; 20 mg/kg intravenously, normotensive rats",~46%
same,maximum fall in mean B.P.,"[1]; 30 mg/kg intravenously, normotensive rats",~57%
same,heart rate,"[1]; any dose (10-30 mg/kg intravenously), normotensive rats",not significantly altered
same,mean blood pressure lower than control values,"[1]; end of three hours after SDG administration, 10-30 mg/kg intravenously",approximately 25%
same,hypotensive effect of SDG after premedication with NG-monomethyl-L-arginine,[2]; NG-monomethyl-L-arginine (inhibitor of nitric oxide synthase),not prevented
same,hypotensive effect of SDG in presence of methylene blue,"[2]; SDG 20 mg/kg intravenously, methylene blue 0.5 mg/kg 15 minutes prior",completely prevented
same,heart rate in presence of pyrilamine,[2]; SDG with pyrilamine,practically unchanged
same,hypotensive effect of SDG after premedication with atropine,[2]; atropine (acetylcholine receptor blocker),not prevented
same,hypotensive effect of SDG after premedication with indomethacin,[2]; indomethacin (inhibitor of cyclooxygenase),not prevented
same,hypotensive effect of SDG in presence of pyrilamine,[2]; pyrilamine (histamine receptor blocker) 15 minutes before SDG,partly prevented
same,mean arterial pressure,[3]; [8],marked fall
same,response of angiotensin I on the mean arterial pressure,"[3]; angiotensin I 0.2 μg/kg intravenously, Sprague-Dawley rats, 60 minutes",marked reduction
same,mean arterial pressure,[4]; [8],reduced the mean arterial pressure
same,angiotensin II response on arterial pressure,"[4]; angiotensin II 0.2 μg/kg I.V., 15, 30, 60 minutes",moderately reduced
same,percent decrease in blood pressures,"[5]; 1 mg/kg intravenously, 30 minutes after SDG",19%
same,percent decrease in blood pressures,"[5]; 1 mg/kg intravenously, end of 4 hours",34%
same,percent decrease in blood pressures,"[5]; 3 mg/kg intravenously, 30 minutes after SDG",25%
same,percent decrease in blood pressures,"[5]; 3 mg/kg intravenously, end of 4 hours",43%
same,percent decrease in blood pressures,"[5]; 15 mg/kg intravenously, 30 minutes after SDG",31%
same,percent decrease in blood pressures,"[5]; 15 mg/kg intravenously, end of 4 hours",36%
same,time of maximum fall in the blood pressure,[5]; 1-15 mg/kg intravenously,15 to 30 min
same,maximum fall in the blood pressure,[6]; 5 mg/kg intraperitoneally,approximately 7%
same,percent decrease in blood pressures,[6]; 5 mg/kg intraperitoneally,31%
same,maximum fall in the blood pressure,[6]; 10 mg/kg intraperitoneally,~37%
same,percent decrease in blood pressures,[6]; 10 mg/kg intraperitoneally,42%
same,maximum fall in the blood pressure,[6]; 50 mg/kg intraperitoneally,~50%
same,percent decrease in blood pressures,[6]; 50 mg/kg intraperitoneally,39%
same,maximum fall in the blood pressure,[6]; 200 mg/kg intraperitoneally,~48%
same,percent decrease in blood pressures,[6]; 200 mg/kg intraperitoneally,37%
same,time at which blood pressures began falling,[7],15 min
same,reduction of blood pressure,"[7]; observed for four hours, systolic, diastolic and mean similar",approximately 25%
